pIC50: −log10 of the molar value.

The first test addresses T1, kinase-domain human PKCι (Homo sapiens, UniProt P41743).
T1 construct: Recombinant, kinase-domain human PKCι is expressed and purified in-house; made in house
T1 sequence (P41743 254-522 limits assumed): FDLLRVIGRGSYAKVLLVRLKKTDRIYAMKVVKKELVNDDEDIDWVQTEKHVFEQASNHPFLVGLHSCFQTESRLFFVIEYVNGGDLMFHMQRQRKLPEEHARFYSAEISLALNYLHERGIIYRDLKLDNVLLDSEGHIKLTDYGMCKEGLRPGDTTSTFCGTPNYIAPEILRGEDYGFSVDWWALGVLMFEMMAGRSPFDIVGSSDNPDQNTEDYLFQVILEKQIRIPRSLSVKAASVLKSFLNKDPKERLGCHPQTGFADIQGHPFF
Put plainly: PKCι IC50 IMAP fluorescence polarisation assay, kinase-domain enzyme. Type of test: biochemical. As to conditions: kinase domain PKCi at 2 μM ATP; read-out: IC50 in IMAP assay against kinase domain PKCi. (In general: Polarisation of emitted light reports the rotation of a fluorescent probe.)
As usually defined, the pIC50 is the negative decadic logarithm of the IC50, by convention in mol/L. For `NCCNc1nc(-c2ccncc2)nc2cc(-c3ccccc3)sc12` [compound 313, N*1*-(6-Phenyl-2-pyridin-4-yl-thieno[3,2-d]pyrimidin-4-yl)-ethane-1,2-diamine], the pIC50 was 4.40 to 5.00. Turning to `C[C@H](N)CNc1nc(-c2ccncc2)nc2cc(-c3ccc(C(C)(C)C)cc3)sc12` [compound 359, (S)-N*1*-[6-(4-tert-Butyl-phenyl)-2-pyridin-4-yl-thieno[3,2-d]pyrimidin-4-yl]-propane-1,2-diamine], the pIC50 is 4.40 to 5.00. On the same count and under the same terms, next, `Clc1cccc2sc3c(N4CCCNCC4)nc(-c4ccncc4)nc3c12` [compound 371, 9-Chloro-4-[1,4]diazepan-1-yl-2-pyridin-4-yl-benzo[4,5]thieno[3,2-d]pyrimidine]: 6.00 to 7.00. Still for that read-out and setting: next, `c1ccc(-c2cc3nc(-c4ccncc4)nc(N4CCCNCC4)c3s2)cc1` [compound 368, 4-[1,4]Diazepan-1-yl-6-phenyl-2-pyridin-4-yl-thieno[3,2-d]pyrimidine]: 5.00 to 6.00; `N[C@@H](COc1nc(-c2ccncc2)nc2c1sc1cccc(Cl)c12)Cc1ccccc1` [compound 477, (R)-1-(9-Chloro-2-pyridin-4-yl-benzo[4,5]thieno[3,2-d]pyrimidin-4-yloxymethyl)-2-phenyl-ethylamine]: 4.40 to 5.00; `NCCNc1nc(-c2ccncc2)nc2c1sc1ncccc12` [compound 375, N*1*-(2-Pyridin-4-yl-pyrido[3′,2′:4,5]thieno[3,2-d]pyrimidin-4-yl)-ethane-1,2-diamine]: 5.00 to 6.00. For `Clc1cccc2sc3c(N[C@@H]4CCNC4)nc(-c4ccncc4)nc3c12` [compound 384, (9-Chloro-2-pyridin-4-yl-benzo[4,5]thieno[3,2-d]pyrimidin-4-yl)-(R)-pyrrolidin-3-yl-amine], the pIC50 was 5.00 to 6.00. With `Cc1csc2c(NC[C@@H](C)N)nc(-c3ccncc3)nc12` [compound 369, (R)-N*1*-(7-Methyl-2-pyridin-4-yl-thieno[3,2-d]pyrimidin-4-yl)-propane-1,2-diamine], the negative logarithm of the IC50 (pIC50) is 5.00 to 6.00.

Staying with this test, now noted: kinase domain PKCi at 2 μM ATP; read-out: IC50 in IMAP assay against kinase domain PKCi (Activity).
With `c1cc(-c2nc(N3CCCNCC3)c3c4c(sc3n2)CCCC4)ccn1` [compound 14, 4-[1,4]Diazepan-1-yl-2-pyridin-4-yl-5,6,7,8-tetrahydro-benzo[4,5]thieno[2,3-d]pyrimidine], the pIC50 is 6.00 to 7.00.

Turning to `N[C@@H](COc1nc(-c2ccncc2)nc2sc3c(c12)CCCC3)Cc1cccs1` [compound 170, (R)-2-(2-Pyridin-4-yl-5,6,7,8-tetrahydro-benzo[4,5]thieno[2,3-d]pyrimidin-4-yloxy)-1-thiophen-2-ylmethyl-ethylamine], the pIC50 was 4.40 to 5.00. The same measure, in the same setting: next, `Clc1cccc(CN2CCN(c3nc(-c4ccncc4)nc4sc5c(c34)CCCC5)CC2)c1` [compound 124, 4-[4-(3-Chloro-benzyl)-piperazin-1-yl]-2-pyridin-4-yl-5,6,7,8-tetrahydro-benzo[4,5]thieno[2,3-d]pyrimidine]: 4.40 to 5.00; `Cc1c(C(N)=O)sc2nc(-c3ccncc3)nc(NC[C@@H](N)Cc3ccccc3)c12` [compound 74, 4-((S)-2-Amino-3-phenyl-propylamino)-5-methyl-2-pyridin-4-yl-thieno[2,3-d]pyrimidine-6-carboxylic acid amide]: 6.00 to 7.00. The same measure, in the same setting: next, `C[C@@H](N)CNc1nc(-c2ccncc2F)nc2sc3c(c12)CCCC3` [compound 100, (R)-N*1*-[2-(3-Fluoro-pyridin-4-yl)-5,6,7,8-tetrahydro-benzo[4,5]thieno[2,3-d]pyrimidin-4-yl]-propane-1,2-diamine]: 5.00 to 6.00; `Cc1sc2nc(-c3ccncc3)nc(NCCN)c2c1C` [compound 36, N*1*-(5,6-Dimethyl-2-pyridin-4-yl-thieno[2,3-d]pyrimidin-4-yl)-ethane-1,2-diamine]: 6.00 to 7.00; `CC[C@H](N)COc1nc(-c2ccncc2)nc2sc3c(c12)CCCC3` [compound 150, (S)-1-(2-Pyridin-4-yl-5,6,7,8-tetrahydro-benzo[4,5]thieno[2,3-d]pyrimidin-4-yloxymethyl)-propylamine]: 5.00 to 6.00. Still for that read-out and setting: next, `Cc1n[nH]c(C)c1-c1nc(N[C@@H]2CCNC2)c2c3c(sc2n1)CCCC3` [compound 194, [2-(3,5-Dimethyl-1H-pyrazol-4-yl)-5,6,7,8-tetrahydro-benzo[4,5]thieno[2,3-d]pyrimidin-4-yl]-(R)-pyrrolidin-3-yl-amine]: 6.00 to 7.00; `CCc1cc2c(NC[C@@H](C)N)nc(-c3ccncc3)nc2s1` [compound 35, (R)-N*1*-(6-Ethyl-2-pyridin-4-yl-thieno[2,3-d]pyrimidin-4-yl)-propane-1,2-diamine]: 5.00 to 6.00.

In the case of `CCc1cc2c(NC[C@H](C)N)nc(-c3ccncc3)nc2s1` [compound 34, (S)-N*1*-(6-Ethyl-2-pyridin-4-yl-thieno[2,3-d]pyrimidin-4-yl)-propane-1,2-diamine], the negative-log IC50 (pIC50) is 5.00 to 6.00.

As to `Brc1cnccc1CN1CCN(c2nc(-c3ccncc3)nc3sc4c(c23)CCCC4)CC1` [compound 131, 4-[4-(3-Bromo-pyridin-4-ylmethyl)-piperazin-1-yl]-2-pyridin-4-yl-5,6,7,8-tetrahydro-benzo[4,5]thieno[2,3-d]pyrimidine], the pIC50 was 4.40 to 5.00.

Regarding `N[C@H](COc1nc(-c2ccncc2)nc2sc3c(c12)CCCC3)c1ccccc1` [compound 155, (S)-1-Phenyl-2-(2-pyridin-4-yl-5,6,7,8-tetrahydro-benzo[4,5]thieno[2,3-d]pyrimidin-4-yloxy)-ethylamine], the pIC50 is 5.00 to 6.00. Same read-out and setting: to `C[C@H](N)CNc1nc(-c2cn[nH]c2)nc2sc3c(c12)CCCC3` [compound 187, (S)-N*1*-[2-(1H-Pyrazol-4-yl)-5,6,7,8-tetrahydro-benzo[4,5]thieno[2,3-d]pyrimidin-4-yl]-propane-1,2-diamine] belongs 6.00 to 7.00; to `CCc1cc2c(NCCN)nc(-c3ccncc3)nc2s1` [compound 33, N*1*-(6-Ethyl-2-pyridin-4-yl-thieno[2,3-d]pyrimidin-4-yl)-ethane-1,2-diamine], 5.00 to 6.00.

Take `N[C@H](COc1nc(-c2ccncc2)nc2sc3c(c12)CCCC3)Cc1ccc(F)cc1` [compound 162, (S)-1-(4-Fluoro-benzyl)-2-(2-pyridin-4-yl-5,6,7,8-tetrahydro-benzo[4,5]thieno[2,3-d]pyrimidin-4-yloxy)-ethylamine]: the pIC50 was 4.40 to 5.00.

Take `N[C@@H](COc1nc(-c2ccncc2)nc2sc3c(c12)CCCC3)Cc1csc2ccccc12` [compound 176, (R)-1-Benzo[b]thiophen-3-ylmethyl-2-(2-pyridin-4-yl-5,6,7,8-tetrahydro-benzo[4,5]thieno[2,3-d]pyrimidin-4-yloxy)-ethylamine]: the pIC50 is 4.40 to 5.00. As to `N[C@H](COc1nc(-c2ccncc2)nc2sc3c(c12)CCCC3)Cc1ccccc1F` [compound 164, (S)-1-(2-Fluoro-benzyl)-2-(2-pyridin-4-yl-5,6,7,8-tetrahydro-benzo[4,5]thieno[2,3-d]pyrimidin-4-yloxy)-ethylamine], the pIC50 was 5.00 to 6.00. Regarding `N[C@H](CNc1nc(-c2cn[nH]c2)nc2sc3c(c12)CCCC3)Cc1ccccc1` [compound 183, (S)-3-Phenyl-N*1*-[2-(1H-pyrazol-4-yl)-5,6,7,8-tetrahydro-benzo[4,5]thieno[2,3-d]pyrimidin-4-yl]-propane-1,2-diamine], the pIC50 was 6.00 to 7.00. On the same count and under the same terms, to `CC(C)C[C@@H](N)CNc1nc(-c2ccncc2)nc2sc3c(c12)CCCC3` [compound 16, (R)-4-Methyl-N*1*-(2-pyridin-4-yl-5,6,7,8-tetrahydro-benzo[4,5]thieno[2,3-d]pyrimidin-4-yl)-pentane-1,2-diamine] belongs 5.00 to 6.00.

As to `CC[C@H](N)CNc1nc(-c2ccncc2)nc2sc3c(c12)CCCC3` [compound 68, (S)-N*1*-(2-Pyridin-4-yl-5,6,7,8-tetrahydro-benzo[4,5]thieno[2,3-d]pyrimidin-4-yl)-butane-1,2-diamine], the pIC50 is 5.00 to 6.00. As for `CCN1CCN(c2nc(-c3ccncc3)nc3sc4c(c23)CCCC4)CC1` [compound 119, 4-(4-Ethyl-piperazin-1-yl)-2-pyridin-4-yl-5,6,7,8-tetrahydro-benzo[4,5]thieno[2,3-d]pyrimidine], the pIC50 is 5.00 to 6.00.

The values are drawn from US10183950B2, “Thienopyrimidine inhibitors of atypical protein kinase C” (Cancer Research Technology Limited, priority 2011, dated 2019).
